# Measured values reported in PubChem BioAssay AID2060495 (Molecular Pharmacology Branch, DTP, NCI, 2025).
# Tested on: 521955-158-R2-J5-PDC complex spheroid viability
# Test: Anticancer human tumor 521955-158-R2-J5-PDC patient-derived pancreatic carcinoma cell line growth inhibition [GQUAD]
# Details: for IC50: curve of first compound; for viability, T/C: stronger effect = lower value
# Description: DNA G-quadruplex Stabilizer Agents in Combinations in Complex Spheroids
# A high-throughput screen of multi-cell type tumor spheroids was designed to identify active combinations of DNA G-quadruplex stabilizer agents and targeted small molecules. Complex spheroids include a stromal component modeled by human endothelial cells (HUVEC) and fibroblasts modeled by human mesenchymal stem cells (MSCs). The concentration ranges selected for each drug and investigational agent were based upon clinically achievable concentrations if the clinical Cmax of the agent was known.
# Compounds. The drugs and investigational agents: pidnarulex (CX-5461; NSC782164), APTO-253 (NSC789042), BRACO-19 (NSC847499), peposertib (NSC802822), ceralasertib (NSC780249), elimusertib (NSC800525), camonsertib (NSC841442), AZD-1390 (NSC803789), olaparib (NSC753686), talazoparib (NSC767125), ART-558 (NSC835418), sotorasib (NSC818433), MRTX-1133 (NSC836407), SN-38 (NSC673596), topotecan (NSC609699), etoposide (NSC141540), doxorubicin (NSC123127), gemcitabine (NSC613327), 5-fluorouracil (NSC19893), paclitaxel (NSC125973), vemurafenib (NSC761431), panobinostat (NSC761190), R-306465 (JNJ-16241199; NSC773264), adavosertib (NSC754352), TP-3654 (NSC805149), carboplatin (NSC241240), KSQ-4279 (NSC840948), and staurosporine (NSC755774) were obtained from the National Cancer Institute (NCI) Developmental Therapeutics Program Chemical Repository (34). The FDA-approved anticancer drug set is available from the NCI Developmental Therapeutics Program. […] The stock solutions were prepared in dimethyl sulfoxide (DMSO, Sigma-Aldrich, St. Louis, MO, cat. D2650) at 800-fold the tested concentration and stored at -70 degrees C prior to their use. All drugs and investigational agents were tested over a range starting from a high concentration at or near the clinical Cmax and decreasing in half-log increments. If the clinical Cmax for an agent had not been determined, the highest concentration tested was 10 microM.
# 2.3 Cell Culture. All cells were maintained in an incubator at 37 degrees C and 5% CO2 with 95% humidity. The PDC lines were cultured according to standard operating procedures established by the NCI PDMR. All PDCs were thawed and cultured in Matrigel-coated flasks prepared with a working solution of 1X Ham's F-12 nutrient mix, without supplementation (Invitrogen, cat. 11765054), 100 U/mL penicillin-streptomycin (Invitrogen, cat. 15140122), and 2.5% Matrigel (Corning Inc., cat. 354248) for the first three passages. The 857933-349-R-J2-PDC line was cultured in 6C/Colon 1B media, which includes advanced DMEM/F-12 (Thermo Fisher Scientific, cat. 12634028), 10 mM HEPES (Thermo Fisher Scientific, cat. 15630080), 1X GlutaMAX supplement (Thermo Fisher Scientific, cat. 35050061), 0.1 mg/mL primocin (InvivoGen, cat. ant-pm-2), 10% defined fetal bovine serum, heat inactivated (HyClone Laboratories Inc., cat. SH30070.03HI), 50% L-WRN conditioned media (ATCC, cat. CRL-3276), 1.25 mM N-Acetyl-L-cysteine (Sigma-Aldrich, cat. A9165), 10 mM nicotinamide (Sigma-Aldrich, cat. N0636), 1X B-27 supplement (Thermo Fisher Scientific, cat. 17504044), 1X N-2 supplement (Thermo Fisher Scientific, cat. 17502048), 10 microM Y-27632 dihydrochloride (Tocris Bioscience, cat. 1254), and 50 ng/mL human EGF recombinant protein (Thermo Fisher Scientific, cat. PHG0311). The 485176-168-R4-J1-PDC line was cultured in Panc media, which includes all 6C/Colon 1B media components plus 100 ng/mL human FGF-10 (Thermo Fisher Scientific, cat. 100-26), 500 nM SB-431542 (Selleckchem, cat. S1067), and gastrin (Tocris, cat. 3006).
# […]
# [1] = second compound 0.0316 µM, first compound 0.0316 µM
# [2] = second compound 0.0316 µM, first compound 0.1 µM
# [3] = second compound 0.0316 µM, first compound 0.316 µM
# [4] = second compound 0.0316 µM, first compound 1 µM
# [5] = second compound 0.0316 µM, first compound 3.16 µM
# [6] = second compound 0.0316 µM, first compound 10 µM
# [7] = second compound 0.1 µM, first compound 0.0316 µM
# [8] = second compound 0.1 µM, first compound 0.1 µM
# [9] = second compound 0.1 µM, first compound 0.316 µM
# [10] = second compound 0.1 µM, first compound 1 µM
# [11] = second compound 0.1 µM, first compound 3.16 µM
# [12] = second compound 0.1 µM, first compound 10 µM
# [13] = second compound 0.316 µM, first compound 0.0316 µM
# [14] = second compound 0.316 µM, first compound 0.1 µM
# [15] = second compound 0.316 µM, first compound 0.316 µM
# [16] = second compound 0.316 µM, first compound 1 µM
# [17] = second compound 0.316 µM, first compound 3.16 µM
# [18] = second compound 0.316 µM, first compound 10 µM
# [19] = second compound 1 µM, first compound 0.0316 µM
# [20] = second compound 1 µM, first compound 0.1 µM
# [21] = second compound 1 µM, first compound 0.316 µM
# [22] = second compound 1 µM, first compound 1 µM
# [23] = second compound 1 µM, first compound 3.16 µM
# [24] = second compound 1 µM, first compound 10 µM
# [25] = second compound 3.16 µM, first compound 0.0316 µM
# [26] = second compound 3.16 µM, first compound 0.1 µM
# [27] = second compound 3.16 µM, first compound 0.316 µM
# [28] = second compound 3.16 µM, first compound 1 µM
# [29] = second compound 3.16 µM, first compound 3.16 µM
# [30] = second compound 3.16 µM, first compound 10 µM
# [31] = second compound 10 µM, first compound 0.0316 µM
# [32] = second compound 10 µM, first compound 0.1 µM
# [33] = second compound 10 µM, first compound 0.316 µM
# [34] = second compound 10 µM, first compound 1 µM
# [35] = second compound 10 µM, first compound 3.16 µM
# [36] = second compound 10 µM, first compound 10 µM
# 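Also: spheroids exposed to agents for one week before reading.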
# 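For viability, T/C in this document: 100% = DMSO vehicle control viability.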
smiles,measurement,setting,value
C=CC(=O)N1CCN(c2nc(=O)n(-c3c(C)ccnc3C(C)C)c3nc(-c4c(O)cccc4F)c(F)cc23)C(C)C1 (stereo unspecified) + CN(C)c1ccc(Nc2c3ccc(NC(=O)CCN4CCCC4)cc3nc3cc(NC(=O)CCN4CCCC4)ccc23)cc1,IC50,second compound 0.0316 µM,> 10000 nM
same,IC50,second compound 0.1 µM,> 10000 nM
same,IC50,second compound 0.316 µM,> 10000 nM
same,IC50,second compound 1 µM,> 10000 nM
same,IC50,second compound 3.16 µM,> 10000 nM
same,IC50,second compound 10 µM,> 10000 nM
same,"viability, T/C",[1],103%
same,"viability, T/C",[2],94.1%
same,"viability, T/C",[3],105%
same,"viability, T/C",[4],96.8%
same,"viability, T/C",[5],108%
same,"viability, T/C",[6],101%
same,"viability, T/C",[7],98.2%
same,"viability, T/C",[8],105%
same,"viability, T/C",[9],119%
same,"viability, T/C",[10],111%
same,"viability, T/C",[11],122%
same,"viability, T/C",[12],93.3%
same,"viability, T/C",[13],91.7%
same,"viability, T/C",[14],90.4%
same,"viability, T/C",[15],101%
same,"viability, T/C",[16],114%
same,"viability, T/C",[17],101%
same,"viability, T/C",[18],95.3%
same,"viability, T/C",[19],90.3%
same,"viability, T/C",[20],84.5%
same,"viability, T/C",[21],94.1%
same,"viability, T/C",[22],112%
same,"viability, T/C",[23],100%
same,"viability, T/C",[24],81.3%
same,"viability, T/C",[25],71.7%
same,"viability, T/C",[26],87.5%
same,"viability, T/C",[27],85.5%
same,"viability, T/C",[28],96.9%
same,"viability, T/C",[29],96.7%
same,"viability, T/C",[30],73.5%
same,"viability, T/C",[31],77.5%
same,"viability, T/C",[32],72.8%
same,"viability, T/C",[33],72.5%
same,"viability, T/C",[34],70.6%
same,"viability, T/C",[35],101%
same,"viability, T/C",[36],70.6%
CC1COCCN1c1cc(C2(S(C)(=N)=O)CC2)nc(-c2ccnc3[nH]ccc23)n1 (stereo unspecified) + Cc1cnc(CNC(=O)c2c(=O)c3ccc(N4CCCN(C)CC4)nc3n3c2sc2ccccc23)cn1,IC50,second compound 0.0316 µM,614 nM
same,IC50,second compound 0.1 µM,543 nM
same,IC50,second compound 0.316 µM,< 31.6 nM
same,IC50,second compound 1 µM,< 31.6 nM
same,IC50,second compound 3.16 µM,< 31.6 nM
same,IC50,second compound 10 µM,< 31.6 nM
same,"viability, T/C",[1],80.3%
same,"viability, T/C",[2],86.1%
same,"viability, T/C",[3],82.4%
same,"viability, T/C",[4],26.1%
same,"viability, T/C",[5],9.1%
same,"viability, T/C",[6],10.6%
same,"viability, T/C",[7],59.4%
same,"viability, T/C",[8],60.2%
same,"viability, T/C",[9],76.2%
same,"viability, T/C",[10],32.7%
same,"viability, T/C",[11],12.3%
same,"viability, T/C",[12],10.4%
same,"viability, T/C",[13],42.2%
same,"viability, T/C",[14],46.2%
same,"viability, T/C",[15],53.2%
same,"viability, T/C",[16],32.8%
same,"viability, T/C",[17],13.7%
same,"viability, T/C",[18],11.3%
same,"viability, T/C",[19],31%
same,"viability, T/C",[20],24.5%
same,"viability, T/C",[21],23.4%
same,"viability, T/C",[22],23.7%
same,"viability, T/C",[23],15.4%
same,"viability, T/C",[24],11.1%
same,"viability, T/C",[25],21.3%
same,"viability, T/C",[26],23.6%
same,"viability, T/C",[27],21.5%
same,"viability, T/C",[28],19.3%
same,"viability, T/C",[29],13.6%
same,"viability, T/C",[30],9.15%
same,"viability, T/C",[31],16.2%
same,"viability, T/C",[32],19.1%
same,"viability, T/C",[33],20.9%
same,"viability, T/C",[34],22.8%
same,"viability, T/C",[35],14.3%
same,"viability, T/C",[36],7.66%
CC1COCCN1c1cc(-c2ccnn2C)c2ccnc(-c3ccn[nH]3)c2n1 (stereo unspecified) + CN(C)c1ccc(Nc2c3ccc(NC(=O)CCN4CCCC4)cc3nc3cc(NC(=O)CCN4CCCC4)ccc23)cc1,IC50,second compound 0.0316 µM,66.1 nM
same,IC50,second compound 0.1 µM,54.6 nM
same,IC50,second compound 0.316 µM,55.7 nM
same,IC50,second compound 1 µM,52.7 nM
same,IC50,second compound 3.16 µM,52.6 nM
same,IC50,second compound 10 µM,32.6 nM
same,"viability, T/C",[1],86.1%
same,"viability, T/C",[2],30.1%
same,"viability, T/C",[3],19.8%
same,"viability, T/C",[4],20.6%
same,"viability, T/C",[5],26.6%
same,"viability, T/C",[6],33.5%
same,"viability, T/C",[7],66.2%
same,"viability, T/C",[8],33.7%
same,"viability, T/C",[9],21.2%
same,"viability, T/C",[10],20.9%
same,"viability, T/C",[11],26.8%
same,"viability, T/C",[12],40.1%
same,"viability, T/C",[13],69.6%
same,"viability, T/C",[14],31.2%
same,"viability, T/C",[15],15.5%
same,"viability, T/C",[16],19.8%
same,"viability, T/C",[17],31.2%
same,"viability, T/C",[18],39.2%
same,"viability, T/C",[19],66.5%
same,"viability, T/C",[20],31.1%
same,"viability, T/C",[21],16%
same,"viability, T/C",[22],18.4%
same,"viability, T/C",[23],34.4%
same,"viability, T/C",[24],30.2%
same,"viability, T/C",[25],68%
same,"viability, T/C",[26],28.4%
same,"viability, T/C",[27],17.4%
same,"viability, T/C",[28],17.5%
same,"viability, T/C",[29],25.1%
same,"viability, T/C",[30],33.6%
same,"viability, T/C",[31],50.1%
same,"viability, T/C",[32],36%
same,"viability, T/C",[33],21.6%
same,"viability, T/C",[34],23.8%
same,"viability, T/C",[35],23.2%
same,"viability, T/C",[36],26.6%
